Patent US8513233B2, “Pyrimidinyl-propionic acid derivatives and their use as PPAR agonists” (Shanghai Institute of Materia Medica, CAS, priority 2007, dated 2013)

Key:
[1] = tested on: MCF-7; test: Growth inhibition, modified MTT assay, MCF-7; format: cell-based; settings: Homo sapiens, MCF7; MCF-7, MTT, mean of 3 independent tests
Description: (§1) The growth inhibition was evaluated by the modified MTT assay. Briefly, the cells were seeded at 1×10^4 cells/well in 96-well plates (Falcon, Calif., USA), and incubated for 24 h in […] culture media with 10% FCS. The media were then replaced by serum-free medium. After 24 h, the media were placed in triplicate with grade concentrations of compounds. As controls, the cells were cultivated in DMEM/F12 only. The cells were then treated by MTT (Sigma, USA) assay, […] (5 g/L) for 4 h. After the removal of the supernatant, the purple-blue sediment was dissolved in 100 μL/well DMSO, and the optical densities were read on the multi-well scanning spectrophotometer (Labsystems Dragon, Finland) at 492 nm (A492). The growth inhibition rate (GIR) of the treated cells was calculated using Equation: GIR(%)={1−[A490/A490(control)]}×100% The results were also converted to IC50 (the compound concentration required for 50% growth inhibition of tumor cells), which were calculated by using the sigmoidal fitting model by the Origin 7.0 software (OriginLab, Northampton, Mass., USA). The mean IC50 was determined from the results of 3 independent tests.

[2] = biological target: T1, PPAR-γ (Homo sapiens, UniProt P37231); test: Transient transfection and transcription assay (luciferase reporter, U2OS cells); format: cell-based; settings: 24 h treatment
T1 construct: expressed in transfected cells; host or cells: U2OS cells, transiently transfected with pcDNA3.1 expression vectors (FuGene6)
T1 sequence (P37231 1-505): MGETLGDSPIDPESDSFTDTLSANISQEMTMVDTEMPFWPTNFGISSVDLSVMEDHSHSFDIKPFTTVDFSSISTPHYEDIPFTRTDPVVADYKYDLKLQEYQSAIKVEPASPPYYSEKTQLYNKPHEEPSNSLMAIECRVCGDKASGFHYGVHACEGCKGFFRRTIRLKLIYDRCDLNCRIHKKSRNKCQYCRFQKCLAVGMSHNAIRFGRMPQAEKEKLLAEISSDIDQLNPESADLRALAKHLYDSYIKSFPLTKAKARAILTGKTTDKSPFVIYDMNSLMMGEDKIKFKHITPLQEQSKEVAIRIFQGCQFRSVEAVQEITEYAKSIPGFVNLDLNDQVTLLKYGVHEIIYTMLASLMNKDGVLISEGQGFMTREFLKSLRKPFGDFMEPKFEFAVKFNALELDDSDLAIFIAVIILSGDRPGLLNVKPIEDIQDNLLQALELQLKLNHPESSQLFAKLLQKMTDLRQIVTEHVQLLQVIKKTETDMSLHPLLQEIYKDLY
T1 sequence (P19793 1-462 partner): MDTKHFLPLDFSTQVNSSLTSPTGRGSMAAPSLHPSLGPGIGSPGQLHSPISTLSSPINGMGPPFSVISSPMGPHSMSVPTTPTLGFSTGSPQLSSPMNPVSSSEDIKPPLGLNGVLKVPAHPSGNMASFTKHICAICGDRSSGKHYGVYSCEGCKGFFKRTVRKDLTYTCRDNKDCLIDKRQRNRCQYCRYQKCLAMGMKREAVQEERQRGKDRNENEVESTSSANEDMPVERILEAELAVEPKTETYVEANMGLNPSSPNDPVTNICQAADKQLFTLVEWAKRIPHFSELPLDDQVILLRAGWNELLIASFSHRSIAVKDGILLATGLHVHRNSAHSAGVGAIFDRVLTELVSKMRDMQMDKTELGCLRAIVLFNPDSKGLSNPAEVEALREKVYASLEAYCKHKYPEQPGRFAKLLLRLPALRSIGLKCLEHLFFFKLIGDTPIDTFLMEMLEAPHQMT
Description: cDNAs for Human RXR, PPAR were obtained by RTPCR from the human liver or adipose tissues. Amplified cDNAs were cloned into pcDNA3.1 expression vector and the inserts were confirmed by sequencing. U2OS cells were cultured in McCoy's 5A with 10% heat-inactivated fetal bovine serum in a humidified 5% CO2 atmosphere at 37° C. Cells were seeded in 96-well plates the day before transfection to give a confluence of 50-80% at transfection. A total of 60 ng of DNA containing 10 ng of hRXR, 10 ng of pCMV Gal, 10 ng of nuclear receptor expression vectors and 30 ng of the corresponding reporters were cotransfected per well using FuGene6 transfection reagent according to the manufacturer's instructions. […] The final concentration of DMSO in culture medium was 0.1%. […] Luciferase activity was monitored using the luciferase assay kit according to the manufacturers instructions. Light emission was read in a Labsystems Ascent Fluoroskan reader. To measure galactosidase activity to normalize the luciferase data, 50 IL of supernatant from each transfection lysate was transferred to a new microplate. Galactosidase assays were performed in the microwell plates using a kit from Promega and read in a microplate reader. Compounds were tested in five concentrations ranging from 0.01 to 10 μM. […] The results were expressed as means (SD).

[3] = tested on: SPC-A1; test: Growth inhibition, modified MTT assay, SPC-A1; format: cell-based; settings: SPCA1, mean of 3 independent tests
Description: as §1

[4] = tested on: T24; test: Growth inhibition, modified MTT assay, T24; format: cell-based; settings: Homo sapiens, T-24, mean of 3 independent tests
Description: as §1

[5] = tested on: HepG2; test: Growth inhibition, modified MTT assay, HepG2; format: cell-based; settings: Homo sapiens, mean of 3 independent tests
Description: as §1

| Compound | IC50 [1] [µM] | melting point [°C] | EC50 [2] [µM] | IC50 [3] [µM] | IC50 [4] [µM] | IC50 [5] [µM] |
| --- | --- | --- | --- | --- | --- | --- |
| CCN(CC)c1nc(Oc2ccc(CC(C)(Oc3ccccc3)C(=O)O)cc2)cc(N2CCN(Cc3ccccc3)CC2)n1 (centres unmarked) [Compound 51, 3-{4-[6-(4-Benzyl-piperazin-1-yl)-2-diethylamino-pyrimidin-4-yloxy]-phenyl}-2-methyl-2-phenoxy-propionic acid] | 27.6 | 120 to 121 | 7.08 | 36.6 | 21.9 | 37.5 |
| CC(Cc1ccc(Oc2cc(N3CCN(Cc4ccccc4)CC3)nc(N3CCOCC3)n2)cc1)(Oc1ccccc1)C(=O)O (centres unmarked) [Compound 53, 3-{4-[6-(4-Benzyl-piperazin-1-yl)-2-morpholin-4-yl-pyrimidin-4-yloxy]-phenyl}-2-methyl-2-phenoxy-propionic acid] | 12.5 | 127 to 129 | 3.98 | 22.4 | 15.8 | 22.2 |
| CCNc1nc(Oc2ccc(CC(C)(Oc3ccccc3)C(=O)O)cc2)cc(N2CCN(Cc3ccccc3)CC2)n1 (centres unmarked) [Compound 50, 3-{4-[6-(4-Benzyl-piperazin-1-yl)-2-ethylamino-pyrimidin-4-yloxy]-phenyl}-2-methyl-2-phenoxy-propionic acid] | 33.7 | 106 to 107 | 6.03 | 46.6 | > 50 | > 50 |
| CC(Cc1ccc(Oc2cc(N3CCN(Cc4cccc(Br)c4)CC3)nc(N)n2)cc1)(Oc1ccccc1)C(=O)O (centres unmarked) [Compound 16, 3-{4-{2-Amino-6-[4-(3-bromo-benzyl)-piperazin-1-yl]-pyrimidin-4-yloxy}-phenyl}-2-methyl-2-phenoxy-propionic acid] | 30 | 119 to 120 | 6.31 | 37 | 41 | 48 |
| CC(Cc1ccc(Oc2cc(N3CCN(Cc4ccccc4)CC3)nc(NCc3ccccc3)n2)cc1)(Oc1ccccc1)C(=O)O (centres unmarked) [Compound 47, 3-{4-[2-Benzylamino-6-(4-benzyl-piperazin-1-yl)-pyrimidin-4-yloxy]-phenyl}-2-methyl-2-phenoxy-propionic acid] | 22.8 | 104 to 106 | 6.31 | 31.5 | > 50 | > 50 |
| CC(Cc1ccc(Oc2cc(N3CCN(Cc4ccccc4)CC3)nc(N3CCCCC3)n2)cc1)(Oc1ccccc1)C(=O)O (centres unmarked) [Compound 52, 3-{4-[6-(4-Benzyl-piperazin-1-yl)-2-piperidin-1-yl-pyrimidin-4-yloxy]-phenyl}-2-methyl-2-phenoxy-propionic acid] | 17.6 | 125 to 126 | 4.68 | 7.8 | 12.4 | 17.9 |
| CC(Cc1ccc(Oc2cc(N3CCN(Cc4ccc(Br)cc4)CC3)nc(N)n2)cc1)(Oc1ccccc1)C(=O)O (centres unmarked) [Compound 15, 3-{4-{2-Amino-6-[4-(4-bromo-benzyl)-piperazin-1-yl]-pyrimidin-4-yloxy}-phenyl}-2-methyl-2-phenoxy-propionic acid] | 42.2 | 112 to 114 | 5.89 | 45.3 | > 50 | > 50 |
| CC(Cc1ccc(Oc2cc(N3CCN(Cc4ccccc4)CC3)ncn2)cc1)(Oc1ccccc1)C(=O)O (centres unmarked) [Compound 28, 3-{4-[6-(4-benzyl-piperazin-1-yl)-pyrimidin-4-yloxy]-phenyl}-2-methyl-2-phenoxy-propionic acid] | 14.6 | 107 to 109 | 4.68 | 28.6 | 19.6 | 29.3 |
| CN(C)c1nc(Oc2ccc(CC(C)(Oc3ccccc3)C(=O)O)cc2)cc(N2CCN(Cc3ccccc3)CC2)n1 (centres unmarked) [Compound 49, 3-{4-[6-(4-Benzyl-piperazin-1-yl)-2-dimethylamino-pyrimidin-4-yloxy]-phenyl}-2-methyl-2-phenoxy-propionic acid] | > 50 | 136 to 138 | 2.95 | > 50 | > 50 | > 50 |
| CC(Cc1ccc(Oc2cc(N3CCN(Cc4ccccc4)CC3)nc(N3CCCC3)n2)cc1)(Oc1ccccc1)C(=O)O (centres unmarked) [Compound 54, 3-{4-[6-(4-Benzyl-piperazin-1-yl)-2-pyrrolidin-1-yl-pyrimidin-4-yloxy]-phenyl}-2-methyl-2-phenoxy-propionic acid] | > 50 | 126 to 127 | 3.8 | > 50 | > 50 | > 50 |
| CC(Cc1ccc(Oc2cc(N3CCN(Cc4ccc([N+](=O)[O-])cc4)CC3)nc(N)n2)cc1)(Oc1ccccc1)C(=O)O (centres unmarked) [Compound 38, 3-{4-{2-Amino-6-[4-(4-nitro-benzyl)-piperazin-1-yl]-pyrimidin-4-yloxy}-phenyl}-2-methyl-2-phenoxy-propionic acid] | 45.3 | 160 to 162 | – | > 50 | 40.3 | > 50 |
| CC(Cc1ccc(Oc2cc(N3CCN(Cc4ccncc4)CC3)nc(N)n2)cc1)(Oc1ccccc1)C(=O)O (centres unmarked) [Compound 40, 3-{4-[2-Amino-6-(4-pyridin-4-ylmethyl-piperazin-1-yl)-pyrimidin-4-yloxy]-phenyl}-2-methyl-2-phenoxy-propionic acid] | 45.2 | 137 to 138 | – | 46.5 | > 50 | > 50 |
| CC(Cc1ccc(Oc2cc(N3CCN(Cc4cccnc4)CC3)nc(N)n2)cc1)(Oc1ccccc1)C(=O)O (centres unmarked) [Compound 39, 3-{4-[2-Amino-6-(4-pyridin-3-ylmethyl-piperazin-1-yl)-pyrimidin-4-yloxy]-phenyl}-2-methyl-2-ph enoxy-propionic acid] | 38.8 | 141 to 143 | – | 43.5 | > 50 | > 50 |
| CC(Cc1ccc(Oc2cc(N3CCN(c4ccccn4)CC3)nc(N)n2)cc1)(Oc1ccccc1)C(=O)O (centres unmarked) [Compound 19, 3-{4-[2-Amino-6-(4-pyridin-2-yl-piperazin-1-yl)-pyrimidin-4-yloxy]-phenyl}-2-methyl-2-phenoxy-propionic acid] | > 50 | 110 to 111 | 6.31 | 42.5 | – | 49.5 |
